From publication PMC8068801, “Novel Benzenesulfonate Scaffolds with a High Anticancer Activity and G2/M Cell Cycle Arrest” (Cancers, 2021)

What was measured:
K562 cells [1] = test: Autophagy assay (Muse LC3-antibody kit), K562; format: cell-based, human; conditions: K562, 0.5 μM, vs control
Procedure: (§1) The K562 and U-251 cells were seeded in 96-well plates (Nunc) and incubated at 37 °C for 24 h. The density of the cells was 20,000 cells per well (for the 24 h assay) and 10,000 per well (for the 48 h assay). […] After treatment, the assays were performed using a Muse™ Autophagy LC3-antibody based kit (Millipore) according to the manufacturer’s instructions. Briefly, the cells were collected, washed with cold HPBS and centrifuged at 300 g for 5 min. […] The samples were incubated on ice for 30 min in the dark. After incubation, the cells were centrifuged and resuspended in 200 μL of a 1X Assay Buffer. Then, the samples were directly processed to analyze the autophagy induction using a Muse Cell Analyzer. The autophagy induction ratio was calculated on the basis of the ratio between the target sample fluorescence versus the control sample. The experiments were performed at least three times.

U-251 cells [2] = test: qRT-PCR mRNA expression, U-251; format: cell-based, human; conditions: for Increase in the GADD45α mRNA expression / p62 mRNA expression: 24 h; for LC3 mRNA expression: U-251, 24 h
Procedure: (§2) The total RNA was isolated from the K562 and U-251 cells using the TRIzol Reagent procedure (Ambion, Austin, TX, USA). Reverse transcription was performed with 5 μg of total RNA using a GoScript™ Reverse Transcriptase kit (Promega) and Oligo(dT)23 Primers (Sigma). Real-time PCR was performed using a CTX96 Touch™ Real-Time PCR Detection System (Biorad, Hercules, CA, USA) in a 20 μL reaction volume. The reaction consisted of SsoAdvanced™ Universal SYBR® Green Supermix (Biorad), a specific primer pair mix (0.5 μM each) and 1 μL of cDNA. The reaction was performed under the following conditions: initial denaturation at 95 °C for 30 s; followed by 40 denaturation cycles at 95 °C, 15 s; annealing (primer-specific temperature for 30 s) and extension at 72 °C for 60 s. The obtained results were analyzed based on a comparison of the expression of the target genes to the reference gene, GAPDH, using the 2^−ΔΔCT method. The experiments were performed at least four times.

K562 cells [3] = test: Cell cycle assay (Muse Cell-Cycle Kit), K562; format: cell-based, human; conditions: 24 h
Procedure: The K562, U-251 and NHDF cells were seeded in 3 cm Petri dishes (Nunc) at a density of 250,000 cells per well and incubated under standard conditions at 37 °C for 24 h. […] After a 24 h treatment, the assays were performed using a Muse Cell-Cycle Kit (Millipore, Burlington, MA, USA) according to the supplier’s instructions. Briefly, the cells were collected, washed with cold PBS and centrifuged at 300 g for 5 min. Afterwards, the cells were fixed in ice cold 70% ethanol and stored at −20 °C overnight. The next day, the cells were washed with cold PBS, centrifuged and resuspended in 200 μL of the Muse™ Cell Cycle Reagent. The samples were incubated for 30 min at room temperature in the dark. After staining, the cellular subpopulation values in the individual cell cycle phases were estimated using a cell cycle analysis using a Muse Cell Analyzer (Millipore). The experiments were performed at least four times.

purified bovine tubulin = test: In vitro tubulin polymerization assay; format: biochemical; conditions: 10 µM; turbidity at 350 nm, maximum absorbance
Procedure: The effect of small-molecule compounds on tubulin polymerization was monitored using an In Vitro Tubulin Polymerization Kit (≥99% Pure Bovine Tubulin) (Millipore) following the manufacturer’s protocol. Briefly, the tested compounds, BS1 and BS4, as well as reference drugs, paclitaxel (enhancer of polymerization) and nocodazole (inhibitor of polymerization) at a concentration of 10 µM were mixed with purified bovine tubulin (60 μM) and polymerization buffer with GTP (1 mM) on 96-well plate on ice. Then, the plate was transferred into the multi-plate reader (Synergy 4) chamber (heated to 37 °C) and measured the turbidity variation every 30 s at 350 nm during 90 min. The experiments were performed three times.

K562 cells [4] = test: Annexin V binding (apoptosis) assay, K562; format: cell-based, human; conditions: K562, 5 µM, 48 h; 5.56% in the control cells
Procedure: (§3) The K562, U-251 and NHDF cells were seeded in 3 cm Petri dishes (Nunc) at a density of 250,000 cells per well and incubated at 37 °C for 24 h. Then, the medium was removed, and freshly prepared solutions of the tested compounds, BS1 and BS4 (two to three times the IC50 value), were added. After a 48 h incubation, the assays were performed using a FITC Annexin V Apoptosis Detection KIT with 7-AAD (Bio-Legend) according to the manufacturer’s instructions. Briefly, the cells were collected, washed twice with cold PBS and centrifuged at 300 g for 5 min. Next, the cells were resuspended in a 100 µL Annexin V Binding Buffer and incubated for 15 min at room temperature in the dark with 5 µL of FITC Annexin V and 5 µL 7-AAD Viability Staining Solution. After immunostaining, the number of events for live, early and late apoptotic cells were determined using a Muse Cell Analyzer. The experiments were performed at least four times.

K562 cells [5] = test: qRT-PCR mRNA expression, K562; format: cell-based, human; conditions: 24 h
Procedure: as §2

U-251 cells [6] = test: Annexin V binding (apoptosis) assay, U-251; format: cell-based, human; conditions: U-251, 6 μM, 48 h
Procedure: as §3

U-251 cells [7] = test: Autophagy assay (Muse LC3-antibody kit), U-251; format: cell-based, human; conditions: U-251, 4 μM, 24 h; vs control
Procedure: as §1

| Structure (SMILES) | Autophagy induction ratio (K562 cells [1]; 24 h) | Autophagy induction ratio (K562 cells [1]; 48 h) | Increase in the GADD45α mRNA expression (U-251 cells [2]; U-251, 4 µM) [fold] | p62 mRNA expression (U-251 cells [2]; U-251, 4 µM) | LC3 mRNA expression (U-251 cells [2]) | Cells in G2/M phase, mean ± SD (K562 cells [3]; K562, 0.35 µM) [%] | Cells in G2/M phase, mean ± SD (K562 cells [3]; K562, 0.5 μM) [%] | Enhancement of tubulin polymerization, increase compared to control (purified bovine tubulin) | Total (early and late) apoptotic cells (K562 cells [4]) [%] | Decrease in the IDH1 mRNA level (K562 cells [5]; K562, 0.5 μM) [fold] | p62 mRNA level (K562 cells [5]; K562, 0.5 μM) | Early apoptotic cells, mean ± SD (U-251 cells [6]) [%] | Late apoptotic cells, mean ± SD (U-251 cells [6]) [%] | p62 mRNA expression (U-251 cells [2]; U-251, 6 μM) | Cells in G0/G1 phase, mean ± SD (K562 cells [3]; K562, 0.5 μM) [%] | Cells in S phase, mean ± SD (K562 cells [3]; K562, 0.5 μM) [%] | LC3 transcript levels (K562 cells [5]; K562, 0.35 µM) | Decrease in the IDH1 mRNA level (K562 cells [5]; K562, 0.5 µM and 0.35 µM) | GADD45α mRNA expression (K562 cells [5]; K562, 0.5 μM) | Autophagy induction ratio (U-251 cells [7]) |
| --- | --- | --- | --- | --- | --- | --- | --- | --- | --- | --- | --- | --- | --- | --- | --- | --- | --- | --- | --- | --- |
| COc1ccccc1/C=C/c1nc(OS(=O)(=O)c2ccc3c(c2)OCO3)c2ccccc2n1 [BS1, 2-((E)-2-(2-methoxyphenyl)ethenyl)quinazolin-4-yl 1,3-benzodioxole-5-sulfonate] | 2.26 | 1.96 | ~1.5 | almost four-fold increase | more than two-fold increase | 43.46 | 37.20 | about 47% | 31.99 | ~2.4 | about three-fold | 39.80 | 11.40 | – | – | – | – | – | – | – |
| COc1ccccc1/C=C/c1nc(OS(=O)(=O)c2ccc(C)cc2)c2ccccc2n1 [BS4, 2-((E)-2-(2-methoxyphenyl)ethenyl)quinazolin-4-yl 4-methylbenzenesulfonate] | – | – | ~1.5 | – | more than two-fold increase | – | 58.73 | – | 26.51 | – | – | – | – | almost four-fold increase | 21.80 | 18.32 | decreased | about a two-fold decrease | almost two-fold decrease | 5.03 |
